Reference: patent publication US12319672B2, “Alpha-D-galactopyranoside derivatives” (Idorsia Pharmaceuticals Ltd, priority 2019, dated 2025)

Key:
[1] = biological target: human Gal-3 (hGal-3) (Homo sapiens (Human), UniProt P17931); assay: Competitive binding assay: binding of biotinylated hGal-3 to microplate-adsorbed asialofetuin (ASF); conditions: Activity on hGal-3; mean values of several measurements
Summary of the method: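 Biotinylated hGal-3 (300-1000 ng/mL) bound to ASF-coated wells with serially diluted compound, 3 h at 4° C. After washing, bound protein was detected with streptavidin-peroxidase (80 ng/mL, 1 h, 4° C) and ABTS substrate; IC50 values are means of several measurements.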

[2] = biological target: human Gal-1 (hGal-1); assay: Competitive binding assay: binding of biotinylated hGal-1 to microplate-adsorbed asialofetuin (ASF); conditions: Activities on hGal-1; mean values of several measurements
Summary of the method: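 Compounds diluted in DMSO competed with biotinylated hGal-3 or hGal-1 (300-1000 ng/mL) for binding to plate-adsorbed asialofetuin for 3 h at 4° C. Bound galectin was detected with streptavidin-peroxidase (80 ng/mL, 1 h, 4° C) and ABTS substrate; IC50 reported as mean of several measurements.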

Sequence of human Gal-1 (hGal-1) (P09382 2-135 limits assumed): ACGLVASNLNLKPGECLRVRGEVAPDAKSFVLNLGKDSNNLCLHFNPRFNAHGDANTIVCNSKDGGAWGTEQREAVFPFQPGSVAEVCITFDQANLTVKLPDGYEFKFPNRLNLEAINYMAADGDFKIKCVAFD
Sequence of human Gal-3 (hGal-3) (P17931 whole entry): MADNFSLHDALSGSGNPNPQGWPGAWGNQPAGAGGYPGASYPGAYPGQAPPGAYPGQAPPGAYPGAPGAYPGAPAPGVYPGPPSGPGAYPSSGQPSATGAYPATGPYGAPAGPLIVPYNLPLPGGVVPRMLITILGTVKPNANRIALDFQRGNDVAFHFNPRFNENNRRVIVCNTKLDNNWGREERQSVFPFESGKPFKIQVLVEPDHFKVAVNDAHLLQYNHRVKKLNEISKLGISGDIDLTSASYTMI

| SMILES | IC50 [1] | IC50 [2] |
| --- | --- | --- |
| CO[C@@H]1[C@@H](n2cc(-c3cc(F)c(F)c(Cl)c3)nn2)[C@@H](O)[C@@H](CO)O[C@@H]1Cc1cc(C2CCN(C(C)=O)CC2)on1 [Ex 1.219] | 0.023 µM | 0.43 µM |
| CO[C@@H]1[C@@H](n2cc(-c3ccc(C)c(F)c3F)nn2)[C@@H](O)[C@@H](CO)O[C@@H]1Cc1cc(C2(O)CCCC2)no1 [Ex 1.326] | 0.057 µM | 2.87 µM |
| CO[C@@H]1[C@@H](n2cc(-c3cc(F)c(F)c(F)c3)nn2)[C@@H](O)[C@@H](CO)O[C@@H]1Cc1cc(C2(O)CCCN(C(C)=O)CC2)on1 (mixture of isomers) [Example 2.10] | 0.45 µM | 4.47 µM |
| CO[C@@H]1[C@@H](n2cc(-c3cc(F)c(F)c(F)c3)nn2)[C@@H](O)[C@@H](CO)O[C@@H]1Cn1cc(C2(C)CCOCC2)nn1 [Example 4.51, (2R,3R,4S,5R,6R)-2-(hydroxymethyl)-5-methoxy-6-((4-(4-methyltetrahydro-2H-pyran-4-yl)-1H-1,2,3-triazol-1-yl)methyl)-4-(4-(3,4,5-trifluorophenyl)-1H-1,2,3-triazol-1-yl)tetrahydro-2H-pyran-3-ol] | 0.16 µM | 1.6 µM |
| CO[C@@H]1[C@@H](n2cc(-c3cc(F)c(F)c(F)c3)nn2)[C@@H](O)[C@@H](CO)O[C@@H]1Cc1cc(C2CCCC2)on1 [Ex 1.71] | 0.23 µM | 5.26 µM |
| CO[C@@H]1[C@@H](n2cc(-c3cc(F)c(F)c(F)c3)nn2)[C@@H](O)[C@@H](CO)O[C@@H]1Cc1cc(C2COC2)on1 [Ex 1.84] | 0.35 µM | 3.01 µM |
| CC1(c2cc(C[C@H]3O[C@H](CO)[C@H](O)[C@H](n4cc(-c5ccc(F)c(F)c5F)nn4)[C@H]3OCC(=O)O)on2)CC1 [Example 2.44, 2-(((2R,3R,4S,5R,6R)-5-hydroxy-6-(hydroxymethyl)-2-((3-(1-methylcyclopropyl)isoxazol-5-yl)methyl)-4-(4-(2,3,4-trifluorophenyl)-1H-1,2,3-triazol-1-yl)tetrahydro-2H-pyran-3-yl)oxy)acetic acid] | 0.04 µM | 0.51 µM |
| CO[C@@H]1[C@@H](n2cc(-c3cc(F)c(F)c(F)c3)nn2)[C@@H](O)[C@@H](CO)O[C@@H]1Cc1cc(C2CCC(NC(=O)[C@@H](N)C(C)C)CC2)no1 (stereo partly drawn) [Example 2.30, (S)-2-amino-N-((1R,4S)-4-(5-(((2R,3R,4S,5R,6R)-5-hydroxy-6-(hydroxymethyl)-3-methoxy-4-(4-(3,4,5-trifluorophenyl)-1H-1,2,3-triazol-1-yl)tetrahydro-2H-pyran-2-yl)methyl)isoxazol-3-yl)cyclohexyl)-3-methylbutanamide] | 0.072 µM | 1.98 µM |
| CO[C@@H]1[C@@H](n2cc(-c3cc(F)cc(F)c3)nn2)[C@@H](O)[C@@H](CO)O[C@@H]1Cc1cc(C2CCN(C(=O)OC(C)(C)C)CC2)no1 [Ex 1.126] | 0.081 µM | 0.44 µM |
| CO[C@@H]1[C@@H](n2cc(-c3ccc(Cl)c(F)c3F)nn2)[C@@H](O)[C@@H](CO)O[C@@H]1Cc1cc(C2(C#N)CCCC2)no1 [Ex 1.293] | 0.093 µM | 2.92 µM |
| COc1ccc(F)cc1-c1cn([C@H]2[C@@H](O)[C@@H](CO)O[C@H](CC3CC(C4CCN(C(=O)OC(C)(C)C)CC4)=NO3)[C@@H]2O)nn1 (some centres unmarked) [Ex 1.96] | 1.74 µM | 8.65 µM |
| CC(C)(C)c1cc(C[C@H]2O[C@H](CO)[C@H](O)[C@H](n3cc(-c4ccc(F)c(F)c4F)nn3)[C@H]2O)on1 [Example 2.49, (2R,3R,4R,5R,6R)-2-((3-(tert-butyl)isoxazol-5-yl)methyl)-6-(hydroxymethyl)-4-(4-(2,3,4-trifluorophenyl)-1H-1,2,3-triazol-1-yl)tetrahydro-2H-pyran-3,5-diol] | 0.053 µM | 0.64 µM |
| CO[C@@H]1[C@@H](n2cc(-c3cc(F)c(Cl)c(F)c3)nn2)[C@@H](O)[C@@H](CO)O[C@@H]1CC1CC(C2CCN(C(=O)OC(C)(C)C)CC2)=NO1 (some centres unmarked) [Ex 1.145] | 0.17 µM | 1.56 µM |
| CO[C@@H]1[C@@H](n2cc(-c3ccc(Cl)c(F)c3F)nn2)[C@@H](O)[C@@H](CO)O[C@@H]1Cc1cc(C2CCOCC2)on1 [Ex 1.181] | 0.056 µM | 8.04 µM |
| OC[C@H]1O[C@H](CC2CC(c3cncnc3)=NO2)[C@H](O)[C@@H](n2cc(-c3cc(F)c(F)c(F)c3)nn2)[C@H]1O (some centres unmarked) [Ex 1.14] | 0.68 µM | 2.27 µM |
| CO[C@@H]1[C@@H](n2cc(-c3cc(F)c(F)c(F)c3)nn2)[C@@H](O)[C@@H](CO)O[C@@H]1CC1CC(C2CCCC2)=NO1 (some centres unmarked) [Ex 1.12] | 0.67 µM | 3.55 µM |

| SMILES | IC50 [1] | IC50 [2] |
| --- | --- | --- |
| CCOC(C)(C)c1cc(C[C@H]2O[C@H](CO)[C@H](O)[C@H](n3cc(-c4ccc(C)c(F)c4F)nn3)[C@H]2OC)on1 [Ex 1.327] | 0.076 µM | 4.17 µM |
| CCOC(=O)N1CCC(c2cc(C[C@H]3O[C@H](CO)[C@H](O)[C@H](n4cc(-c5ccc(Cl)c(F)c5F)nn4)[C@H]3OC)no2)CC1 [Ex 1.203] | 0.026 µM | 1.78 µM |
| CO[C@@H]1[C@@H](n2cc(-c3cc(F)c(F)c(F)c3)nn2)[C@@H](O)[C@@H](CO)O[C@@H]1C[C@@H]1CN(C2CCN(C(=O)C(C)C)CC2)C(=O)O1 [Example 5.13, (R)-5-(((2R,3R,4S,5R,6R)-5-hydroxy-6-(hydroxymethyl)-3-methoxy-4-(4-(3,4,5-trifluorophenyl)-1H-1,2,3-triazol-1-yl)tetrahydro-2H-pyran-2-yl)methyl)-3-(1-isobutyrylpiperidin-4-yl)oxazolidin-2-one] | 0.59 µM | 4.73 µM |
| CO[C@@H]1[C@@H](n2cc(-c3cc(F)c(F)c(F)c3)nn2)[C@@H](O)[C@@H](CO)O[C@@H]1CC1CN(c2ccc(OC(F)F)cc2)C(=O)O1 (mixture of isomers) [Example 5.02, (RS)-3-(4-(difluoromethoxy)phenyl)-5-(((2R,3R,4S,5R,6R)-5-hydroxy-6-(hydroxymethyl)-3-methoxy-4-(4-(3,4,5-trifluorophenyl)-1H-1,2,3-triazol-1-yl)tetrahydro-2H-pyran-2-yl)methyl)oxazolidin-2-one] | 1.56 µM | 3.55 µM |
| CO[C@@H]1[C@@H](n2cc(-c3ccc(F)c(F)c3F)nn2)[C@@H](O)[C@@H](CO)O[C@@H]1Cc1cc(C(C)(C)C)no1 [Ex 1.250] | 0.057 µM | 0.25 µM |
| CO[C@@H]1[C@@H](n2cc(-c3cc(F)c(F)c(F)c3)nn2)[C@@H](O)[C@@H](CO)O[C@@H]1Cc1cn(C2CC[S+]([O-])CC2)nn1 (stereo partly drawn) [Example 4.15, 4-(4-(((2R,3R,4S,5R,6R)-5-hydroxy-6-(hydroxymethyl)-3-methoxy-4-(4-(3,4,5-trifluorophenyl)-1H-1,2,3-triazol-1-yl)tetrahydro-2H-pyran-2-yl)methyl)-1H-1,2,3-triazol-1-yl)tetrahydro-2H-thiopyran 1-oxide] | 0.21 µM | 4.9 µM |
| CO[C@@H]1[C@@H](n2cc(-c3ccccc3)nn2)[C@@H](O)[C@@H](CO)O[C@@H]1CC1CC(C2CCN(C(=O)OC(C)(C)C)CC2)=NO1 (some centres unmarked) [Ex 1.310] | 3.62 µM | 0.48 µM |
| CCOC(=O)CC(C)(C)c1cc(C[C@H]2O[C@H](CO)[C@H](O)[C@H](n3cc(-c4cc(F)c(F)c(F)c4)nn3)[C@H]2OC)on1 [Ex 1.208] | 0.13 µM | 1.64 µM |
| CO[C@@H]1[C@@H](n2cc(-c3ccc(Cl)c(F)c3F)nn2)[C@@H](O)[C@@H](CO)O[C@@H]1CC1CC(C2CCN(C(=O)OC(C)(C)C)CC2)=NO1 (some centres unmarked) [Ex 1.140] | 0.049 µM | 0.69 µM |
| CC(C)(C)c1cc(C[C@H]2O[C@H](CO)[C@H](O)[C@H](n3cc(-c4cc(F)c(F)c(F)c4)nn3)[C@H]2OCC(=O)N2CC[C@@H](O)C2)no1 [Example 2.39, 2-(((2R,3R,4S,5R,6R)-2-((5-(tert-butyl)isoxazol-3-yl)methyl)-5-hydroxy-6-(hydroxymethyl)-4-(4-(3,4,5-trifluorophenyl)-1H-1,2,3-triazol-1-yl)tetrahydro-2H-pyran-3-yl)oxy)-1-((R)-3-hydroxypyrrolidin-1-yl)ethan-1-one] | 0.11 µM | 6.68 µM |
| CO[C@@H]1[C@@H](n2cc(-c3cc(F)c(F)c(F)c3)nn2)[C@@H](O)[C@@H](CO)O[C@@H]1Cc1cc(C2CCN(C(=O)NC(C)C)CC2)on1 [Example 3.38, 4-(3-(((2R,3R,4S,5R,6R)-5-hydroxy-6-(hydroxymethyl)-3-methoxy-4-(4-(3,4,5-trifluorophenyl)-1H-1,2,3-triazol-1-yl)tetrahydro-2H-pyran-2-yl)methyl)isoxazol-5-yl)-N-isopropylpiperidine-1-carboxamide] | 0.043 µM | 0.45 µM |
| CO[C@@H]1[C@@H](n2cc(-c3ccc(C)c(F)c3F)nn2)[C@@H](O)[C@@H](CO)O[C@@H]1Cc1cc([C@@H]2CC[C@H]2O)on1 [Ex 1.343] | 0.093 µM | 9.19 µM |
| CC(C)(C)OC(=O)N1CCC(c2cc(C[C@H]3O[C@H](CO)[C@H](O)[C@H](n4cc(-c5cc(F)c(F)c(F)c5)nn4)[C@H]3O)no2)C1 (some centres unmarked) [Ex 1.55] | 0.66 µM | 41.9 µM |
| CO[C@@H]1[C@@H](n2cc(-c3ccc(C)c(F)c3F)nn2)[C@@H](O)[C@@H](CO)O[C@@H]1Cc1cc(C(C)(CO)CCl)no1 (some centres unmarked) [Ex 1.263] | 0.058 µM | 1.03 µM |
| COc1cc(-c2cn([C@H]3[C@@H](O)[C@@H](CO)O[C@H](CC4CC(C5CCN(C(=O)OC(C)(C)C)CC5)=NO4)[C@@H]3O)nn2)cc(F)c1F (some centres unmarked) [Ex 1.108] | 0.18 µM | 1.69 µM |
